pEC50, pKi: −log10 of the molar value.
Legend:
[1] = target: T1, human muscle nAChR subtype (Homo sapiens, UniProt P02708+P07510+Q07001); experiment: 86Rb+ efflux in TE671/RD cells (human muscle nAChR subtype); assay type: cell-based
T1 construct: endogenous in cells; host or cells: TE671/RD human rhabdomyosarcoma cells
From the text: Example 7: Interaction at the Human Muscle nAChR Subtype
Activation of muscle-type nAChRs was established on the human clonal line TE671/RD, which is derived from an embryonal rhabdomyosarcoma (Stratton et al., Carcinogen 10: 899 (1989)). These cells express receptors that have pharmacological (Lukas, J. Pharmacol. Exp. Ther. 251: 175 (1989)), electrophysiological (Oswald et al., Neurosci. Lett. 96: 207 (1989)), and molecular biological profiles (Luther et al., J. Neurosci. 9: 1082 (1989)) similar to the muscle-type nAChR.
TE671/RD cells were maintained in proliferative growth phase according to routine protocols (Bencherif et al., Mol. Cell. Neurosci. 2: 52 (1991) and Bencherif et al., J. Pharmacol. Exp. Ther. 257: 946 (1991)). […]
Nicotinic acetylcholine receptor (nAChR) function was assayed using ^86Rb^+efflux according to the method described by Lukas et al., Anal. Biochem. 175: 212 (1988). […] Scintillation fluid was added and released radioactivity was measured by liquid scintillation counting. […]
When appropriate, dose-response curves of test compound were determined. The maximal activation for individual compounds (Emax) was determined as a percentage of the maximal activation induced by L-nicotine. The compound concentration resulting in half maximal activation (EC50) of specific ion flux was also determined.

Human α4β2 nAChR subtype = target: T2, Human α4β2 nAChR subtype (Homo sapiens, UniProt P17787+P43681); experiment: [3H]nicotine radioligand binding, membranes from SH-EP1/human α4β2 clonal cells
T2 construct: expressed in transfected cells; host or cells: SH-EP1 clonal cells
Method: Preparation of membranes from SH-EP1/human α4β2 clonal cells:
Cell pellets from 40 150 mm culture dishes were pooled, and homogenized by Polytron (Kinematica GmbH, Switzerland) in 20 milliliters of ice-cold preparative buffer. The homogenate was centrifuged at 48,000 g for 20 minutes at 4° C. The resulting pellet was re-suspended in 20 mL of ice-cold preparative buffer and stored at ˜20° C.
On the day of the assay, the frozen membranes were thawed and spun at 48,000×g for 20 min. The supernatant was decanted and discarded. The pellet was resuspended in Dulbecco's phosphate buffered saline (PBS, Life Technologies) pH 7.4 and homogenized with the Polytron for 6 seconds. Protein concentrations were determined using a Pierce BCA Protein Assay Kit, with bovine serum albumin as the standard (Pierce Chemical Company, Rockford, Ill.).
Assay: Membrane preparations (approximately 50 μg for human and 200-300 μg protein for rat α4β2) were incubated in PBS (50 μL and 100 μL respectively) in the presence of competitor compound (0.01 nM to 100 μM) and 5 nM [^3H]nicotine for 2-3 hours on ice. Incubation was terminated by rapid filtration on a multi-manifold tissue harvester (Brandel, Gaithersburg, Md.) using GF/B filters presoaked in 0.33% polyethyleneimine (w/v) to reduce non-specific binding. Tissue was rinsed 3 times in PBS, pH 7.4. Scintillation fluid was added to filters containing the washed tissue and allowed to equilibrate. Filters were then counted to determine radioactivity bound to the membranes by liquid scintillation counting (2200CA Tri-Carb LSC, Packard Instruments, 50% efficiency or Wallac Trilux 1450 MicroBeta, 40% efficiency, Perkin Elmer).
Data were expressed as disintegrations per minute (DPMs). Within each assay, each point had 2-3 replicates. The replicates for each point were averaged and plotted against the log of the drug concentration. IC50, which is the concentration of the compound that produces 50% inhibition of binding, was determined by least squares non-linear regression. Ki values were calculated using the Cheng-Prussof equation (1973): […]
where N is the concentration of [^3H]nicotine and Kd is the affinity of nicotine (3 nM, determined in a separate experiment).

T1 sequence (P02708 21-457): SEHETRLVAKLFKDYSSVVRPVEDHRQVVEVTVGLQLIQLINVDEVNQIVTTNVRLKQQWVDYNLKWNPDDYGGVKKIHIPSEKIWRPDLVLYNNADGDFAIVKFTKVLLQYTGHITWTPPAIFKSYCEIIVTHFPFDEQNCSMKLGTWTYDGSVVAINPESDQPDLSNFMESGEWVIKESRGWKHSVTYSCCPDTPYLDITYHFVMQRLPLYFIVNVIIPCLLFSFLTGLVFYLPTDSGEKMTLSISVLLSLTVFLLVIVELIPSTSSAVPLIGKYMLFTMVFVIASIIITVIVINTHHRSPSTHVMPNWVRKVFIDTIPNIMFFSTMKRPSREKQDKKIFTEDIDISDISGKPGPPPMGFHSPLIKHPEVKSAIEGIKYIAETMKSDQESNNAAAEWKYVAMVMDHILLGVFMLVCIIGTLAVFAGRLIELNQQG
T1 sequence (P07510 23-517): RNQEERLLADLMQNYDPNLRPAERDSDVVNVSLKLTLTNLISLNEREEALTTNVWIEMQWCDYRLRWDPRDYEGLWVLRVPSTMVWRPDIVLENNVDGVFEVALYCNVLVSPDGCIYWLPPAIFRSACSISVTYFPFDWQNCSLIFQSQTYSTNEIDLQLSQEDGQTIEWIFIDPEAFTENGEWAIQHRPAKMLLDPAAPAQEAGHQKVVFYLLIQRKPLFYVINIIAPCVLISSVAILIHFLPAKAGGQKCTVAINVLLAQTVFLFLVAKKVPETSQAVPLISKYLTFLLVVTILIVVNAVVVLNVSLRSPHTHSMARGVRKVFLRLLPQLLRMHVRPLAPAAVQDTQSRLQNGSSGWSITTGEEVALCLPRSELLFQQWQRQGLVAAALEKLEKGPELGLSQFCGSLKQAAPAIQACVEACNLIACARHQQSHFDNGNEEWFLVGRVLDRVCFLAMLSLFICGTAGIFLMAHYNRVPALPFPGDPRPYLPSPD
T1 sequence (Q07001 22-517): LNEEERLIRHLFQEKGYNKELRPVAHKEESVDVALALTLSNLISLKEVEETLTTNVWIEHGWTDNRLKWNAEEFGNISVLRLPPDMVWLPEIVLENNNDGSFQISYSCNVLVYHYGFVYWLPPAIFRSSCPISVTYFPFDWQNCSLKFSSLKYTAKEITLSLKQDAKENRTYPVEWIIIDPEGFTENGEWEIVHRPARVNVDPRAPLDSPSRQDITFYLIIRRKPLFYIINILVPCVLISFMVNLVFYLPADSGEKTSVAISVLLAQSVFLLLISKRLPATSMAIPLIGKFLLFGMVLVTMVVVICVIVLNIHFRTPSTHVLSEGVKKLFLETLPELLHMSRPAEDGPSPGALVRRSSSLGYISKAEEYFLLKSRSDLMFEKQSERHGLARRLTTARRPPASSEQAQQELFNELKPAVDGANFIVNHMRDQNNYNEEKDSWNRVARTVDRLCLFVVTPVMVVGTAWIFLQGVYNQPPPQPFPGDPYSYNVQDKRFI
T1 sequence (P11230 24-501 partner): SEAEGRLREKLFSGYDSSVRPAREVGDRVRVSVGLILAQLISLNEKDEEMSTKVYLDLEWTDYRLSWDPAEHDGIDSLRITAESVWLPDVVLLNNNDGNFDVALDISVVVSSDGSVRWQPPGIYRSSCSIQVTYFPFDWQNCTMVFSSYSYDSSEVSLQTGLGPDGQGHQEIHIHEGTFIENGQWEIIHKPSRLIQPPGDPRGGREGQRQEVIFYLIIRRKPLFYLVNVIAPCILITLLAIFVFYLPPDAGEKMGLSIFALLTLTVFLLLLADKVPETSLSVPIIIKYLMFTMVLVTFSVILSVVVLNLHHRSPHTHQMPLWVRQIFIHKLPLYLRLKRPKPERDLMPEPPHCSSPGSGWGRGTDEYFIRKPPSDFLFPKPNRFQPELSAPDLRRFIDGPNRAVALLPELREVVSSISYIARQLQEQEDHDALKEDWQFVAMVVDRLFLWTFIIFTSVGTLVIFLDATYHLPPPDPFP
T2 sequence (P43681 29-627 limits assumed): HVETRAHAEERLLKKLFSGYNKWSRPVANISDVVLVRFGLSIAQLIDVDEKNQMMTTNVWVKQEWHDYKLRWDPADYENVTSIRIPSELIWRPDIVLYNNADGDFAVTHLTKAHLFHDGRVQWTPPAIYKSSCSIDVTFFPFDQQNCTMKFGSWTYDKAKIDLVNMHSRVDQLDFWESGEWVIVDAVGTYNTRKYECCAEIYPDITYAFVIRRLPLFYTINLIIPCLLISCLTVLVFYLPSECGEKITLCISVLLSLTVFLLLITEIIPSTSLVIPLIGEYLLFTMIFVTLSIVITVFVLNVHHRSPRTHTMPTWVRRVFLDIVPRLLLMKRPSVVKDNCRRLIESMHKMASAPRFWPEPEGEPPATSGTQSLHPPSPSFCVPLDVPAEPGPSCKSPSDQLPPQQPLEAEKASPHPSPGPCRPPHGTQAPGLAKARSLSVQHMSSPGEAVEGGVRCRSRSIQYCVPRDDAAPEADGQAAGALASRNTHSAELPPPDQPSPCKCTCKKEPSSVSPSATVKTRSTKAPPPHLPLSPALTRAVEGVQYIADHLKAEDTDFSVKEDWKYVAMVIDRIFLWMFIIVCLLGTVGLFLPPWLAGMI
T2 sequence (P17787 26-502): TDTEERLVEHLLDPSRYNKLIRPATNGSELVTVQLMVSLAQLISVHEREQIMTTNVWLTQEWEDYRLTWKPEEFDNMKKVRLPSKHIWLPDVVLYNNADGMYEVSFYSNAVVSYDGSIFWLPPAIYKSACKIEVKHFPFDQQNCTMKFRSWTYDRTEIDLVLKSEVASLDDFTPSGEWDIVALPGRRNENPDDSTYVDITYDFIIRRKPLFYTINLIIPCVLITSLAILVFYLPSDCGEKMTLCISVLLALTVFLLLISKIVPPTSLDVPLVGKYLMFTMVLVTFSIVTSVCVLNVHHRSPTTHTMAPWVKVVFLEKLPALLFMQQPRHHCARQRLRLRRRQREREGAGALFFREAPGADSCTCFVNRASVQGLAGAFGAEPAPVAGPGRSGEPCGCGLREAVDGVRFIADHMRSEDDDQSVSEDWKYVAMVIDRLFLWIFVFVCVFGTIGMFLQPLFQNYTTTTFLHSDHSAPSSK

c1cnc2cc3c(cc2n1)CCNCC3 [Compound A, 7,8,9,10-tetrahydro-6H-azepino[4,5-g]quinoxaline]
pEC50 ([1]; 86Rb+ efflux): 4.12 | Emax ([1]; percentage of maximal activation induced by L-nicotine): 23% | pKi (Human α4β2 nAChR subtype): 8.00

Reference: patent publication US20120053168A1, “FUSED BENZOAZEPINES AS NEURONAL NICOTINIC ACETYLCHOLINE RECEPTOR LIGANDS” (Targacept, Inc., priority 2009, published 2012)
